# Reference: ChEMBL document CHEMBL4385651, “Identification and characterization of the first fragment hits for SETDB1 Tudor domain” (Bioorg Med Chem, 2019)
# Activity calls are given as the source filed them. The rule behind the calls is not given here. Where a SMILES comes first, the peptide text is derived from it. [ ]: non-standard residue; d: D form. The star is where a group is joined. X1 = CC(=O)NCc1ccccc1-n1c(C)nnc1CN*; Lys(Me2) = CN(C)CCCC[C@H](N)C(=O)O
# Assays:
# [1] = target: T1, Histone-lysine N-methyltransferase SETDB1 (Homo sapiens, UniProt Q15047); assay: Binding affinity to N-terminal His6-tagged human SETDB1 Tudor domain (197 to 403 residues) expressed in Escherichia coli BL21(DE3)-pRARE2 cells assessed as induction of HSQC shift at 5 mM by 1H-15 N HSQC-TROSY NMR spectroscopy
# [2] = target: T1, Histone-lysine N-methyltransferase SETDB1; assay: Binding affinity to N-terminally biotinylated human SETDB1 Tudor domain (197 to 403 residues) expressed in Escherichia coli BL21(DE3)-pRARE2 cells by SPR analysis
# [3] = target: T1, Histone-lysine N-methyltransferase SETDB1; assay: Binding affinity to N-terminal His6-tagged human SETDB1 Tudor domain (197 to 403 residues) expressed in Escherichia coli BL21(DE3)-pRARE2 cells by ITC assay
# [4] = target: T1, Histone-lysine N-methyltransferase SETDB1; assay: Binding affinity to N-terminal His6-tagged human SETDB1 Tudor domain (197 to 403 residues) expressed in Escherichia coli BL21(DE3)-pRARE2 cells assessed as induction of HSQC shift at 10 mM by 1H-15 N HSQC-TROSY NMR spectroscopy
Activity [1],Kd [2],Activity [4],SMILES,Kd [3]
inactive,–,–,Cc1nnc(C)n1-c1ccccc1C(=O)O,–
–,2.7 mM,–,CC(=O)NCc1cc(Br)ccc1-n1c(C)nnc1C,–
Active,1.27 mM,–,CC(=O)NCc1ccccc1-n1c(C)nnc1CNC(=O)CNC(=O)[C@@H](NC(=O)[C@H](CO)NC(=O)[C@@H](N)CCCCN(C)C)[C@@H](C)O (H-[Lys(Me2)]STG-X1),–
inactive,–,–,CNC(=O)NCc1ccccc1-n1c(C)nnc1C,–
–,10 mM,–,CC(=O)NCc1cc(C#N)ccc1-n1c(C)nnc1C,–
–,–,> 0.2 ppm,CC(C)(C)NC(=O)[C@@H]1Cc2ccccc2CN1,–

# Second part, the compound before the results:
SMILES,Activity [1],Kd [2],Activity [4],Kd [3]
CC(=O)NCc1cc(C)ccc1-n1c(C)nnc1C,–,7.7 mM,–,–
CC(=O)NCc1ccccc1-n1c(C)nnc1C,Active,3.5 mM,–,3.5 mM
CC(=O)NCc1cc(Cl)ccc1-n1c(C)nnc1C,–,2.5 mM,–,–
Cc1nnc2n1-c1ccccc1COC2,Active,–,–,–
Cc1nnc(C)n1-c1ccccc1CNS(C)(=O)=O,Active,4 to 17 mM,–,4 to 17 mM
